From US20250163057A1, “DCN-1 MODULATING COMPOUNDS AND METHODS OF USE THEREOF” (Cellarity, Inc., priority 2023, published 2025)
Like-named read-outs stand apart in the source and are kept apart here.

Key:
[1] = tested on: fetal hemoglobin gene HBG1; assay: HBG1 Nanostring Assay in CD34+ HSPC erythroid differentiation culture; type: cell-based, human; conditions: for Nanostring Ymax obs (%): relative to a control compound (C1); for EC50: Homo sapiens, 240 h, HBG1 induction, Day10 of erythroid differentiation
Protocol: A Nanostring Assay was performed to evaluate the ability of the compounds to induce expression of the fetal hemoglobin gene HBG1 in cells. The data are shown as EC50, with stronger inducers having a lower EC50 value and higher YMax.
Forty eight hours later (day −2), the cells were passaged at a density of 200,000 cells/ml (100 ul/well in 96well culture plate) in complete expantion media. The cells were plated at 200,000 cells/ml on day 0 and day 3, 400,000 cells/ml on day 5 in phase 1 erythroid differentiation containing StemSpan with 2.5 U/mL of EPO (R&D systems, 287-TC-500), 0.5 mg/mL of Holo-Transferrin (Sigma, T0665-500MG), 1× Glutamine (Gluta-Max) (Gibco, 35050-061), 5 μL/mL Lipid Mixture (Sigma, L0288-100ML), 50 ng/mL SCF (R&D Systems, 255-SV-050), 10 ng/mL IL-3 (R&D Systems, 203-IL010) and 10 ng/mL Insulin (Sigma, I9278-5ML) all 200 μl per well in 96 well culture plate. Cells were then passaged at 500,000 cells/ml and 200 μl per well on day 7 in phase 2 Erythroid differentiation (Phase 1 erythroid differentiation removing IL-3) until collection day (Day10). The culture conditions were used for both control DMSO as well as experimental treatments.
For all cell pasagings, cells were centrifuged at 300 g for 8 minutes at room temperature and cell number were normalized by MANTIS and Integra VIAFLO 384. All the compounds are diluted in DMSO and added to complete media by Formulatrix FAST and mixed starting from day −2. Cells were counted by Luna cell counter with AOPI Staining Solution (Nexcelom Bioscience, CS2-0106-25 mL) on day-2. Cells were counted by BD FACSCelesta Flow Cytometer with CountBright™ Plus Absolute Counting Beads (Thermal Fisher Scientific, C36995) and SYTOX AADvanced™ Ready Flow™ Reagent (Invitrogen, R37173) for other passages. Cells were cultured at 37° C. and 5% CO2. DMSO concentration was kept at 0.1% to minimize any effects to the cells by the vehicle. […] Compound plates were kept at room temperature to protect from light to avoid multiple freeze and thaw cycle.
On the collection day (Day10), 100K cells were collected and stored at −80° C. For direct hybridization for Nanostring, 100K cell pellet was lyzed in 25 μL of RLT (QIAGEN, 79216) with 1×β-Mercaptoethanol (Gibco, 21985-023) and shaked at 300-500 RPM for 5 minutes at room temperature. Cell lysate was stored in −80° C. after lysis.
All hybridizations were done in a total volume of 15 μL (3 μL of RNA lysate added to master mix of 12 μL probe A/B, capture probe/reporter probes, proteinase K and attenuation oligos suspended in hybridization buffer). Samples were hybridized at 67° C. for 22 hr. Following hybridization, the tripartide complexes were purified, immobilized by nCounter Prep Station and imaged by Digital Analyzer (nCounter MAX/FLEX Analysis System), to generate digital counts of barcodes corresponding to each target in the multiplexed reaction. Labeled barcodes obtained from unamplified extracts were counted at 555 images or field of view (FOV). The barcode counts for each sample were recorded in Reporter Code Count (RCC) files that are imported into nSolver analysis software (provided with CodeSet by NS) for quality control evaluation.
The quality control (QC) metric included limit of detection QC by checking for wells with less than 100 total counts for positive controls.
Hybridization signals were normalized against the ERCC positive controls and CodeSet Content (housekeeping gene). Briefly, this involved first calculating a sample-specific scaling factor by calculating arithmetic mean of geomeans of all ERCC positive controls with counts more than zero in all samples. Then this arithmetic mean was divided by the geometric mean of each lane to generate a lane-specific normalization factor. All negative controls and target-specific signal values were then normalized by multiplying counts values with their sample-specific scaling factor. The acceptable range for scaling factors is 0.3-3.0. […]

[2] = tested on: Cullin-3 (CUL3) neddylation; assay: AlphaLISA assay for Cullin-3 (CUL3) neddylation in TF 1 cells; type: cell-based; conditions: Homo sapiens, 3 hours treatment
Summary of the method: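 TF 1 cells in unsupplemented IMDM treated with compound concentrations for 3 h, then lysed. CUL3 neddylation detected by AlphaLISA (biotinylated anti-NEDD8, anti-CUL3 acceptor beads overnight, streptavidin donor beads 1 h); normalized to vehicle (0%) and 1 μM DI-1548 (100%), IC50 from Hill fits.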

[3] = target: DCN1 (DCUND1) protein PONY domain (Homo sapiens (Human), UniProt Q96GG9); assay: TR-FRET assay, DCN1 binding with FAM-labeled probe
Summary of the method: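 Biotinylated DCN1 PONY domain, labeled with streptavidin-Tb, was competed against a FAM-labeled non-covalent DCN1 inhibitor probe in buffer with TritonX and 200 mM NaCl. Conditions were 5 nM DCN1 with 20 nM FAM-probe, or 0.31 nM DCN1 with 100 nM FAM-plus 800 nM unlabeled probe. The TR-FRET ratio was read at 1, 5 and 24 h (0.1% DMSO).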

DCN1 protein = DCN1 protein (Homo sapiens (Human), UniProt Q96GG9); assay: Intact Protein MS Analysis with the RapidFire-TOF System (covalent adduct formation); type: binding; conditions: MS Emax; 400 nM DCN1, 3 hours at room temperature
Summary of the method: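 Tag-cleaved human DCN1 (400 nM) expressed in E. coli, in 25 mM Tris-HCl, 200 mM NaCl, 1 mM DTT, was incubated with 11 compound concentrations for 3 h at room temperature and quenched with 0.2% formic acid. Intact-protein Q-TOF MS with deconvolution detected the compound adduct mass.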

[4] = 24 hr after treatment with compound, read-out: TR FRET IC50 24 hr
[5] = read-out: TR FRET IC50 1 hr, 1 hr after treatment with compound
[6] = TR FRET IC50 1 hr (nM), 1 hr after treatment with compound

Chain of DCN1 protein (Q96GG9 whole entry): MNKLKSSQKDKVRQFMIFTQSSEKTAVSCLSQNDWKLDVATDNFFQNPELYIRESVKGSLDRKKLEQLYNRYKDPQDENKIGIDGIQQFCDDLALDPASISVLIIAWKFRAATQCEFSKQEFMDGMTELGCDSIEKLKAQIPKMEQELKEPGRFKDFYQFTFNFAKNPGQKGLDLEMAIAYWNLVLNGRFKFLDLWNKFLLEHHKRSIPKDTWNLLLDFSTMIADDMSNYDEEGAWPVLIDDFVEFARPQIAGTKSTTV
Chain of DCN1 (DCUND1) protein PONY domain (Q96GG9 60-248): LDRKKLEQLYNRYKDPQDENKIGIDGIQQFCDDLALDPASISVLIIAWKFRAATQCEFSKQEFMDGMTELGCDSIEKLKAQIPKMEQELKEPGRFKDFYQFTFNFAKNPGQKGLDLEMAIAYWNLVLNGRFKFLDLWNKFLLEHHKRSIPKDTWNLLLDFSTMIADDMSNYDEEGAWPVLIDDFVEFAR

For `C=C(C(=O)NCc1nn(-c2ccccc2)c2c1[C@H](c1ccc(F)cc1)[C@H](NC(=O)c1cccc(C(F)(F)F)c1)C(=O)N2CC)C(C)N1CCOCC1` (mixture of isomers) [Compound I-89], the “Nanostring Ymax obs (%)” value [1] was “++ (Nanostring Ymax greater than 50.0 and less than or equal to 100.0)”, the IC50 ([2]; TF-1, 3 h) was no more than 100 nM and the IC50 [3, 4] was no more than 200 nM. For the same compound, the IC50 [3, 5] was no more than 200 nM.
`CCN1C(=O)[C@H](NC(=O)c2cccc(C(F)(F)F)c2)[C@H](c2ccc(F)cc2)c2c(C(=O)N3C[C@H](F)C[C@@H]3C#N)nn(-c3ccccc3)c21` (mixture of isomers) [Compound I-253, N-((4RS,5RS)-3-((2R,4R)-2-cyano-4-fluoropyrrolidine-1-carbonyl)-7-ethyl-4-(4-fluorophenyl)-6-oxo-1-phenyl-4,5,6,7-tetrahydro-1H-pyrazolo[3,4-b]pyridine-5-yl)-3-(trifluoromethyl)benzamide] was tested, and the EC50 [1] was greater than 1000 nM, the “Nanostring Ymax obs (%)” value [1] was “++ (Nanostring Ymax greater than 50.0 and less than or equal to 100.0)” and the IC50 ([2]; TF-1, 3 h) was no more than 100 nM. For the same compound, the IC50 [3, 4] was no more than 200 nM and the IC50 [3, 6] was 1000 to 3000 nM.
`C=C(CN1CC2CCC1CO2)C(=O)NCc1nn(-c2ccccc2)c2c1[C@H](c1ccc(F)cc1)[C@H](NC(=O)c1cccc(C(F)(F)F)c1)C(=O)N2CC` (mixture of isomers) [Compound I-447] was tested, and the EC50 [1] was no more than 100 nM, the “Nanostring Ymax obs (%)” value [1] was “+++ (Nanostring Ymax greater than 100.0)” and the IC50 ([2]; TF-1, 3 h) was no more than 100 nM. The IC50 [3, 4] was no more than 200 nM and the IC50 [3, 5] was no more than 200 nM.
`C=CS(=O)(=O)NCc1nn(-c2ccccc2)c2c1[C@H](c1ccc(F)cc1)[C@H](NC(=O)c1cccc(C(F)(F)F)c1)C(=O)N2CC` (racemic) [Compound I-230] was tested, and the EC50 [1] was greater than 1000 nM, the “Nanostring Ymax obs (%)” value [1] was “++ (Nanostring Ymax greater than 50.0 and less than or equal to 100.0)” and the IC50 ([2]; TF-1, 3 h) was no more than 100 nM.
`CCN1C(=O)[C@@H](NC(=O)c2cccc(C(F)(F)F)c2)[C@@H](C2CCCC2)c2c(C(=O)N3[C@H](C#N)C[C@H]4C[C@H]43)nn(C3CCOCC3)c21` [Compound I-376] was tested, and the IC50 ([2]; TF-1, 3 h) was no more than 100 nM, the IC50 [3, 4] was no more than 200 nM and the IC50 [3, 5] was no more than 200 nM. For the same compound, the “% Adduct Formation” value (DCN1 protein) was “+++ (MS Emax % adduct formation greater than 80.0 and less than or equal to 100.0)”.
`CCN1C(=O)[C@@H](NC(=O)c2cccc(C(F)(F)F)c2)[C@@H](C2CC2)c2c(C(=O)N3CCOC[C@H]3C#N)nn(-c3ccccc3)c21` [Compound I-382] showed an IC50 ([2]; TF-1, 3 h) of no more than 100 nM, an IC50 [3, 4] of no more than 200 nM and an IC50 [3, 6] of 200 to 1000 nM. For the same compound, the “% Adduct Formation” value (DCN1 protein) was “+++ (MS Emax % adduct formation greater than 80.0 and less than or equal to 100.0)”.
`N#C[C@@H]1C[C@H]2C[C@H]2N1C(=O)c1nn(C2CCOCC2)c2c1[C@H](C1CC1)[C@H](NC(=O)c1cccc(C(F)(F)F)c1)C(=O)N2C1CC1` [Compound I-388, N-((4S,5S)-3-((1R,3S,5R)-3-cyano-2-azabicyclo[3.1.0]hexane-2-carbonyl)-4,7-dicyclopropyl-6-oxo-1-(tetrahydro-2H-pyran-4-yl)-4,5,6,7-tetrahydro-1H-pyrazolo[3,4-b]pyridin-5-yl)-3-(trifluoromethyl)benzamide] gave an IC50 ([2]; TF-1, 3 h) of no more than 100 nM, an IC50 [3, 4] of no more than 200 nM and an IC50 [3, 5] of no more than 200 nM. The “% Adduct Formation” value (DCN1 protein) was “++ (MS Emax % adduct formation greater than 30.0 and less than or equal to 80.0)”.
For `CCN1C(=O)[C@@H](NC(=O)c2cccc(SC(F)(F)F)c2)[C@@H](C2CC2)c2c(C(=O)N3[C@H](C#N)C[C@H]4C[C@H]43)nn(C3CCOCC3)c21` [Compound I-389], the IC50 [2] was no more than 100 nM, the IC50 [3, 4] was no more than 200 nM and the IC50 [3, 5] was no more than 200 nM. The “% Adduct Formation” value (DCN1 protein) was “+++ (MS Emax % adduct formation greater than 80.0 and less than or equal to 100.0)”.
`CCN1C(=O)[C@@H](NC(=O)c2cccc(C(F)(F)F)n2)[C@@H](C2CC2)c2c(C(=O)N3[C@H](C#N)C[C@H]4C[C@H]43)nn(C3CCOCC3)c21` [Compound I-390] gave an IC50 [2] of no more than 100 nM, an IC50 [3, 4] of no more than 200 nM and an IC50 [3, 5] of no more than 200 nM. The “% Adduct Formation” value (DCN1 protein) was “+++ (MS Emax % adduct formation greater than 80.0 and less than or equal to 100.0)”.
For `CCN1C(=O)[C@@H](NC(=O)c2ccc3c(c2)CCC3)[C@@H](C2CC2)c2c(C(=O)N3[C@H](C#N)C[C@H]4C[C@H]43)nn(C3CCOCC3)c21` [Compound I-391], the IC50 [2] was no more than 100 nM, the IC50 [3, 4] was no more than 200 nM and the IC50 [3, 5] was no more than 200 nM. For the same compound, the “% Adduct Formation” value (DCN1 protein) was “+++ (MS Emax % adduct formation greater than 80.0 and less than or equal to 100.0)”.
Compound `CCN1C(=O)[C@@H](NC(=O)c2csc(C(F)(F)F)n2)[C@@H](C2CC2)c2c(C(=O)N3[C@H](C#N)C[C@H]4C[C@H]43)nn(C3CCOCC3)c21` [Compound I-392] has an IC50 [2] of no more than 100 nM, an IC50 [3, 4] of no more than 200 nM and an IC50 [3, 5] of no more than 200 nM. The “% Adduct Formation” value (DCN1 protein) was “+++ (MS Emax % adduct formation greater than 80.0 and less than or equal to 100.0)”.
Compound `CCN1C(=O)[C@@H](NC(=O)c2cccc3c2OCCC3)[C@@H](C2CC2)c2c(C(=O)N3[C@H](C#N)C[C@H]4C[C@H]43)nn(C3CCOCC3)c21` [Compound I-394] has an IC50 [2] of no more than 100 nM, an IC50 [3, 4] of no more than 200 nM and an IC50 [3, 5] of no more than 200 nM. For the same compound, the “% Adduct Formation” value (DCN1 protein) was “+++ (MS Emax % adduct formation greater than 80.0 and less than or equal to 100.0)”.
In the case of `CCN1C(=O)[C@@H](NC(=O)c2cccc(OC)c2)[C@@H](C2CC2)c2c(C(=O)N3[C@H](C#N)C[C@H]4C[C@H]43)nn(C3CCOCC3)c21` [Compound I-395], the IC50 [2] is reported as no more than 100 nM, the IC50 [3, 4] is reported as no more than 200 nM and the IC50 [3, 5] is reported as no more than 200 nM. The “% Adduct Formation” value (DCN1 protein) was “+++ (MS Emax % adduct formation greater than 80.0 and less than or equal to 100.0)”.
Work on `CCN1C(=O)[C@@H](NC(=O)c2cccc(OC(F)(F)F)c2)[C@@H](C2CC2)c2c(C(=O)N3[C@H](C#N)C[C@H]4C[C@H]43)nn(C3CCOCC3)c21` [Compound I-396] yielded an IC50 [2] of no more than 100 nM, an IC50 [3, 4] of no more than 200 nM and an IC50 [3, 5] of no more than 200 nM. The “% Adduct Formation” value (DCN1 protein) was “+++ (MS Emax % adduct formation greater than 80.0 and less than or equal to 100.0)”.
Compound `CCN1C(=O)[C@@H](NC(=O)c2cccc3c2OCO3)[C@@H](C2CC2)c2c(C(=O)N3[C@H](C#N)C[C@H]4C[C@H]43)nn(C3CCOCC3)c21` [Compound I-397] has an IC50 [2] of no more than 100 nM, an IC50 [3, 4] of no more than 200 nM and an IC50 [3, 5] of no more than 200 nM. The “% Adduct Formation” value (DCN1 protein) was “+++ (MS Emax % adduct formation greater than 80.0 and less than or equal to 100.0)”.
